melting point	Compound
120 to 121 °C	Cn1cc2c([C@@H]3C[C@H]3CNC(=O)OC(C)(C)C)cccc2n1 (relative stereo) [Example 7, trans-tert-butyl{[2-(2-methyl-2H-indazol-4-yl)cyclopropyl]methyl}carbamate]
105 to 107 °C	Cc1cc2c([C@@H]3C[C@H]3CNC(=O)OC(C)(C)C)cccn2n1 (relative stereo) [Example 40, trans-tert-butyl{[2-(2-methylpyrazolo[1,5-a]pyridin-4-yl)cyclopropyl]methyl}carbamate]
112 to 113 °C	Cc1cc2c([C@@H]3C[C@H]3CNC(=O)c3ccccc3)cccn2n1 (relative stereo) [Example 50, trans-N-{[2-(2-methylpyrazolo[1,5-a]pyridin-4-yl)cyclopropyl]methyl}benzamide]
141 to 142 °C	Cn1cc2c([C@H]3C[C@@H]3CNC(=O)OC(C)(C)C)cccc2n1 [Example 8, tert-butyl{[(1S,2S)-2-(2-methyl-2H-indazol-4-yl)cyclopropyl]methyl}carbamate]
140 to 142 °C	Cn1cc2c([C@@H]3C[C@H]3CNC(=O)OC(C)(C)C)cccc2n1 [Example 9, tert-butyl{[(1R,2R)-2-(2-methyl-2H-indazol-4-yl)cyclopropyl]methyl}carbamate]
140 to 142 °C	Cn1cc2c([C@@H]3C[C@H]3CNC(=O)c3ccc(Br)cc3)cccc2n1 [Example 15, 4-bromo-N-{[(1R,2R)-2-(2-methyl-2H-indazol-4-yl)cyclopropyl]methyl}benzamide]
117 to 118 °C	Cc1cc2c([C@H]3C[C@@H]3CNC(=O)OC(C)(C)C)cccn2n1 [Example 41, tert-butyl{[(1S,2S)-2-(2-methylpyrazolo[1,5-a]pyridin-4-yl)cyclopropyl]methyl}carbamate]
118 to 119 °C	Cc1cc2c([C@@H]3C[C@H]3CNC(=O)OC(C)(C)C)cccn2n1 [Example 42, tert-butyl{[(1R,2R)-2-(2-methylpyrazolo[1,5-a]pyridin-4-yl)cyclopropyl]methyl}carbamate]
135 to 137 °C	CC(=O)NCC1CC1c1cccc2nc(C(F)(F)F)cn12 (stereo not shown) [Example 54, N-({2-[2-(trifluoromethyl)imidazo[1,2-a]pyridin-5-yl]cyclopropyl}methyl)acetamide]
148 to 151 °C	CCC(=O)NCC1CC1c1cccc2nc(C(F)(F)F)cn12 (stereo not shown) [Example 55, N-({2-[2-(trifluoromethyl)imidazo[1,2-a]pyridin-5-yl]cyclopropyl}methyl)propanamide]

Source: patent publication US8110585B2, “Bicyclic compound and pharmaceutical use thereof” (Takeda Pharmaceutical Company Limited, priority 2007, dated 2012)
